# The source made the active and inactive calls. The rule behind the calls is not given here.
# Columns and labels:
# Mus musculus [1] = assay: Antiinflammatory activity against glucose-6-phosphate isomerase induced arthritis mouse model assessed as complete prophylaxis at 100 mg/kg administered once daily for 21 days from GPI immunization; assay type: functional, organism-based; details: time 21.0 day
# [2] = human, microsomes, 0.5 h, 2 µM
# Mus musculus [3] = assay: Antiinflammatory activity against glucose-6-phosphate isomerase induced arthritis mouse model assessed as improvement in clinical score at 10 to 30 mg/kg administered once daily for 21 days from GPI immunization; assay type: functional, organism-based; details: dose 10-30 mg/kg, time 21.0 day
# [4] = Fraction unbound in human plasma incubated for 4.5 hrs by LC/MS/MS analysis; assay type: ADME, cell-free
# Mus musculus [5] = assay: Antiinflammatory activity against glucose-6-phosphate isomerase induced arthritis mouse model assessed as reduction in IL-17 mRNA expression in paws at 30 mg/kg administered once daily for 21 days from GPI immunization by Taqman PCR analysis relative to control; assay type: functional; design: scale not given: the % may be the effect or the level left; details: time 21 day
# PBMC = details: Mus musculus, dose 30-100 mg/kg, time 20-24 hrs
# Description: Inhibition of IL-17A secretion in antiCD3/IL-23 stimulated mouse PBMC cells in mouse plasma at 30 to 100 mg/kg when plasma exposure above 1.8 uM for 20 to 24 hrs
# cells = details: Mus musculus, PBMC
# Description: Inhibition of IL-17A secretion in antiCD3/IL-23 stimulated mouse PBMC cells in mouse plasma preincubated for 2 hrs followed by antiCD3/IL23 stimulation and measured after 6 hrs by Taqman PCR analysis
# [6] = Solubility of the compound in FaSSIF measured after 16 hrs by HPLC analysis; assay type: physicochemical
# Mus musculus [7] = assay: Antiinflammatory activity against glucose-6-phosphate isomerase induced arthritis mouse model assessed as reduction in IL-17 mRNA expression in paws at 3 mg/kg administered once daily for 21 days from GPI immunization by Taqman PCR analysis relative to control; assay type: functional; design: scale not given: the % may be the effect or the level left; details: time 21 day
# Mus musculus [8] = assay: Antiinflammatory activity against glucose-6-phosphate isomerase induced arthritis mouse model assessed as reduction in IL-17 mRNA expression in paws at 10 mg/kg administered once daily for 21 days from GPI immunization by Taqman PCR analysis relative to control; assay type: functional; design: scale not given: the % may be the effect or the level left; details: time 21 day
# [9] = Apparent permeability from apical to basolateral side in dog MDCK cells at 20 uM at pH 7.4; assay type: ADME, cell-based, Canis lupus familiaris
# [10] = biological target: T1, Nuclear receptor ROR-gamma (Homo sapiens) (UniProt P51449); assay: Displacement of [3H]-25-hydroxycholesterol from His-Flag-tagged human RORgammat LBD (309 to 508 residues) expressed in Escherichia coli at 10 uM measured after 4 hrs by Microbeta counter based analysis relative to control
# T1 sequence (whole entry): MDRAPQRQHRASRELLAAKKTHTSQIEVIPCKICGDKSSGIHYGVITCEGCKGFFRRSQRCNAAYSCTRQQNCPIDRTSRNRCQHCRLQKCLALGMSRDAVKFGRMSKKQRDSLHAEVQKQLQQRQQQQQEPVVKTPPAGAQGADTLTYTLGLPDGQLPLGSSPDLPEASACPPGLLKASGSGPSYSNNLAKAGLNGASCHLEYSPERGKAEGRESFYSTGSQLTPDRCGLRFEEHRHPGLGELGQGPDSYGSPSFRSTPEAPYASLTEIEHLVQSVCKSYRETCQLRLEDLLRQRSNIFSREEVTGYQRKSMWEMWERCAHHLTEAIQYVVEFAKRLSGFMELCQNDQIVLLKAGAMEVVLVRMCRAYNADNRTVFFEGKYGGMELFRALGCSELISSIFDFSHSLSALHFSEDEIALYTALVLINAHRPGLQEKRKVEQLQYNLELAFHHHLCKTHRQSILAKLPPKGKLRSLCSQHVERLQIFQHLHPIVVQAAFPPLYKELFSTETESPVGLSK
SMILES,CL free [2],fraction unbound at 4.5 h [4],solubility at 16 h [6],Papp A→B at 20 µM [9],also measured
CCS(=O)(=O)c1ccc(CNC(=O)c2cc3c(s2)C2(CCN([C@H](C)c4ccc(C#N)cc4)CC2)OCC3)cc1,406 mL/min/kg,0.02,9 µg/mL,7.07 ×10⁻⁶ cm/s,Activity (Mus musculus [1]): Active; Activity (Mus musculus [3]): Active; Activity (Mus musculus [5]): 88%; inhibition (PBMC): Active; IC50 (cells): 1800 nM; Activity (Mus musculus [7]): 82%; Activity (Mus musculus [8]): 90%
CS(=O)(=O)c1ccc(CNC(=O)c2cc3c(s2)C2(CCN(Cc4ccc(Cl)cc4Cl)CC2)OCC3)cc1,3450 mL/min/kg,,,,
CCS(=O)(=O)c1ccc(CNC(=O)c2cc3c(s2)C2(CCN([C@H](C)c4ccc(C#N)cc4)CC2)OCC3)nc1,92.2 mL/min/kg,0.05,185 µg/mL,8.5 ×10⁻⁶ cm/s,
C[C@H](c1ccc(C#N)cc1)N1CCC2(CC1)OCCc1cc(C(=O)NCc3ccc(S(C)(=O)=O)cc3)sc12,218 mL/min/kg,,,,
CCS(=O)(=O)c1ccc(CNC(=O)c2cc3c(s2)C2(CCN([C@H](C)c4cnc(C(F)(F)F)nc4)CC2)O[C@@H](C)C3)nc1,32 mL/min/kg,0.12,220 µg/mL,9.07 ×10⁻⁶ cm/s,
CCS(=O)(=O)c1ccc(CNC(=O)c2cc3c(s2)C2(CCN([C@H](C)c4cnc(C(F)(F)F)nc4)CC2)OCC3)cc1,69.5 mL/min/kg,0.056,16 µg/mL,8.56 ×10⁻⁶ cm/s,
CS(=O)(=O)c1ccc(CNC(=O)c2cc3c(s2)C2(CCN(Cc4ccc(C#N)cc4)CC2)OCC3)cc1,80.7 mL/min/kg,,,,
CS(=O)(=O)c1ccc(CNC(=O)c2cc3c(s2)C2(CCN(Cc4ccc(C(F)(F)F)cc4)CC2)OCC3)cc1,448 mL/min/kg,,,,
COc1ccccc1-n1cc(CN2CCC3(CC2)OCC(F)(F)c2cc(Cl)sc23)c(C)n1,,,,,Activity [10]: 52%
CCS(=O)(=O)c1ccc(CNC(=O)c2cc3c(s2)C2(CCN([C@H](C)c4cnc(C(F)(F)F)nc4)CC2)O[C@@H](C)C3)cc1,36.2 mL/min/kg,0.041,24 µg/mL,7.57 ×10⁻⁶ cm/s,
CS(=O)(=O)c1ccc(CNC(=O)c2cc3c(s2)C2(CCN(Cc4ccc(Cl)cc4)CC2)OCC3)cc1,495 mL/min/kg,,,,
